According to the RepoRT retention time repository:

Assay: HILIC, Waters ACQUITY UPLC BEH Amide, 100 × 2.1 mm, 1.7 µm; A: water + 0.125% formic acid + 10 mM ammonium formate; B: 5% water + 95% acetonitrile + 0.125% formic acid + 10 mM ammonium formate; gradient (min/%B) 0/100 2/100 7.7/70 9.5/40 10.25/30 12.75/100 17/100
Details: stereoisomer not certain

SMILES	LC retention time
Cn1c(=O)ccn(C2OC(CO)C(O)C2O)c1=O (stereo unspecified) [3-Methyluridine]	1.12 min
CSCC1OC(n2cnc3c(N)ncnc32)C(O)C1O (stereo unspecified) [5'-Methylthioadenosine]	2.49 min
Cc1[nH]cnc1CN1CCc2c(c3ccccc3n2C)C1=O [Alosetron]	4.19 min
CCC(=O)Nc1ccc(Cl)c(Cl)c1 [Propanil]	1.08 min
CCCSc1ccc2nc(NC(=O)OC)[nH]c2c1 [Albendazole]	1.22 min
NC(=O)CC(N)C(=O)O (stereo unspecified) [Asparagine]	8.81 min
CCCC(=O)OC(CC(=O)[O-])C[N+](C)(C)C [(R)-Butyrylcarnitine]	5.77 min
Cc1ncc2n1-c1ccc(Cl)cc1C(c1ccccc1F)=NC2 [Midazolam]	1.29 min
COCC1=C(C(=O)OC(C)OC(=O)OC(C)C)N2C(=O)C(NC(=O)C(=NOC)c3csc(N)n3)C2SC1 (stereo unspecified)	1.12 min
NCC1CCC(C(=O)Oc2ccc(CCC(=O)O)cc2)CC1 (stereo unspecified) [Cetraxate]	5.29 min
Nc1ncnc2c1ncn2C1OC(COP(=O)(O)O)C(O)C1O (stereo unspecified) [Adenosine 5'-monophosphate]	8.88 min
NC(=O)OCCCc1ccccc1 [Phenprobamate]	1.01 min
O=C1CN2Cc3c(ccc(Cl)c3Cl)N=C2N1 [Anagrelide]	1.82 min
CC(=O)NO [Acetohydroxamic acid]	2.94 min
C[n+]1cccc(C(N)=O)c1 [1-Methylnicotinamide]	6.26 min
COc1cc(OC)c(C(=O)CCCN2CCCC2)c(OC)c1 [Buflomedil]	2.34 min
Nc1[nH]c(=O)ncc1F [5-Flurocytosine]	4.62 min
O=C1CC2(CCCC2)CC(=O)N1CCNCC1COc2ccccc2O1 (stereo unspecified) [Binospirone]	1.8 min
O=C(O)CCCCC1SCC2NC(=O)NC21 (stereo unspecified) [Biotin]	2.85 min
O=C(c1ccc(F)cc1)C1CCN(CCn2c(=S)[nH]c3ccccc3c2=O)CC1 [Altanserin]	2.64 min

SMILES	LC retention time
NC(Cn1cccn1)C(=O)O (stereo unspecified) [3-(1-Pyrazolyl)-alanine]	7.54 min
NCCc1ccccc1 [Phenethylamine]	4.87 min
CN(C)C(N)=NCCCC(N)C(=O)O (stereo unspecified) [ADMA]	8.55 min
CC(C)C(NC(=O)C(N)CCCN=C(N)N)C(=O)O (stereo unspecified) [Arg-Val]	9.3 min
CS(=O)CCCCN=C=S (stereo unspecified) [Sulforaphane]	1.14 min
OC1CCCCC1O (stereo unspecified) [1,2-Cyclohexanediol]	4.88 min
COc1cc2c(cc1OC)C1C(C)c3ccc(OC)c(OC)c3CN1CC2 (stereo unspecified) [Corydaline]	1.52 min
Cc1ccccc1-n1c(C)nc2ccccc2c1=O [Methaqualone]	1.1 min
NCCCCCN [Cadaverine]	8.99 min
C[Si](C)(C)CCC(=O)O [3-Trimethylsilylpropionic acid]	5.64 min
N#CC(O)c1ccc(O)cc1 (stereo unspecified) [4-Hydroxymandelonitrile]	2.63 min
CC=CC(=O)N(CC)c1ccccc1C [Crotamiton]	0.97 min
Nc1nc(Cl)nc2c1ncn2C1OC(CO)C(O)C1O (stereo unspecified) [2-Chloroadenosine]	2.69 min
CCN(CC)CCN1C(=O)CN=C(c2ccccc2F)c2cc(Cl)ccc21 [Flurazepam]	2.41 min
NC1CCCCC1 [Cyclohexanamine]	5.1 min
NC(=O)c1[nH]cnc1N [5-Aminoimidazole-4-carboxamide]	4.18 min
Cn1c(=O)[nH]c2[nH]c(=O)[nH]c2c1=O [1-Methyluric acid]	2.18 min
NC(=O)NCCCC(N)C(=O)O (stereo unspecified) [Citrulline]	8.74 min
Nc1ccc(O)c(C(=O)O)c1	3.89 min

The remaining lines, values ahead:

LC retention time	SMILES
1.34 min	CC(=O)OC12COC1CC(O)C1(C)C(=O)C(O)C3=C(C)C(OC(=O)C(O)C(NC(=O)OC(C)(C)C)c4ccccc4)CC(O)(C(OC(=O)c4ccccc4)C21)C3(C)C (stereo unspecified) [Docetaxel]
1.89 min	CN(C)CCOc1ccc(C(=C(CCCl)c2ccccc2)c2ccccc2)cc1 [Toremifene]
7.67 min	CN(Cc1cnc2nc(N)nc(N)c2n1)c1ccc(C(=O)NC(CCC(=O)O)C(=O)O)cc1 (stereo unspecified) [Methotrexate]
1.15 min	O=C(O)c1ccccc1C(=O)O [Phthalic acid]
4.45 min	NNCCc1ccccc1 [Phenelzine]
4.65 min	CNC(=C[N+](=O)[O-])NCCSCc1csc(CN(C)C)n1 [Nizatidine]
1.07 min	CC(=O)OC1CC(C)(C)C(=C=CC(C)=CC=CC(C)=CC=CC=C(C)C=CC=C(C)C(=O)CC23OC2(C)CC(O)CC3(C)C)C(C)(O)C1 (stereo unspecified) [Fucoxanthin]
3.08 min	CN1CCN2c3ncccc3Cc3ccccc3C2C1 (stereo unspecified) [Mirtazapine]
6.6 min	CC1OC(OCC2OC(Oc3c(-c4ccc(O)c(O)c4)oc4cc(O)cc(O)c4c3=O)C(O)C(O)C2O)C(O)C(O)C1O (stereo unspecified) [Rutin]
7.66 min	CCNC(=O)CCC(N)C(=O)O (stereo unspecified) [Theanine]
1.13 min	CC1CC2C3CCC4=CC(=O)C=CC4(C)C3(F)C(O)CC2(C)C1C(=O)CO (stereo unspecified) [Desoximetasone]
9.73 min	O=C(O)CP(=O)(O)O [Phosphonoacetic acid]
6.98 min	NCCCCNCCCN [Spermidine]
1.3 min	COc1ccc(C(=O)O)cc1 [P-Anisic acid]
7.3 min	O=C1CCC(C(=O)N2CSCC2C(=O)O)N1 (stereo unspecified) [Pidotimod]
2.66 min	CNCCCC12CCC(c3ccccc31)c1ccccc12 [Maprotiline]
0.99 min	C#CC1(O)CCC2C3CCc4cc(O)ccc4C3CCC21C (stereo unspecified) [Ethynylestradiol]
0.94 min	CC(C)Oc1ccc2c(=O)c(-c3ccccc3)coc2c1 [Ipriflavone]
9.58 min	NC(CCS)C(=O)O (stereo unspecified) [Homocysteine]

LC retention time	SMILES
3.38 min	CN(CCOc1ccc(NS(C)(=O)=O)cc1)CCc1ccc(NS(C)(=O)=O)cc1 [Dofetilide]
10.2 min	Oc1cc(O)c2c(c1)OC(c1cc(O)c(O)c(O)c1)C(O)C2 (stereo unspecified) [Epigallocatechin]
2.56 min	CN1CCN(CCCN2c3ccccc3Sc3ccc(Cl)cc32)CC1 [Prochlorperazine]
0.95 min	CC(=O)SCC(Cc1ccccc1)C(=O)NCC(=O)OCc1ccccc1 (stereo unspecified) [Racecadotril]
7.35 min	Cc1nc2ccc(CN(C)c3ccc(C(=O)NC(CCC(=O)O)C(=O)O)s3)cc2c(=O)[nH]1 (stereo unspecified) [Raltitrexed]
1.16 min	O=Cc1c[nH]c2ccccc12 [Indole-3-carboxaldehyde]
1.56 min	OCC(O)C(O)CO (stereo unspecified) [Threitol]
5.09 min	CCCCCC(=O)OC(CC(=O)[O-])C[N+](C)(C)C [Hexanoyl-L-carnitine]
1.84 min	O=CC(O)C(O)C(O)C(O)CO (stereo unspecified) [Glucose]
3.94 min	Cc1ccsc1C(=CCCN1CCCC(C(=O)O)C1)c1sccc1C (stereo unspecified) [Tiagabine]
7.18 min	CCC(C)C(N)C(=O)O (stereo unspecified) [Isoleucine]
7.4 min	CN(C)CC(=O)O [N,N-Dimethylglycine]
9.36 min	CNCCCCC(N)C(=O)O (stereo unspecified) [N-Methyllysine]
6.83 min	CC(C)C(N)C(=O)OCCOCn1cnc2c(=O)[nH]c(N)nc21 (stereo unspecified) [Valaciclovir]
4.61 min	CNNCc1ccc(C(=O)NC(C)C)cc1 [Procarbazine]
2.95 min	c1ccc(C2CN3CCSC3=N2)cc1 (stereo unspecified) [Levamisole]
7.24 min	NCCCNCCCCNCCCN [Spermine]
1.38 min	CC(=O)OCC(CCn1cnc2cnc(N)nc21)COC(C)=O [Famciclovir]
1.15 min	COc1cc(C=O)ccc1O [Vanillin]

LC retention time	SMILES
2.53 min	CNC(CC(=O)O)C(=O)O (stereo unspecified) [N-Methylaspartic acid]
2.05 min	CCCCN1CCCC1CNC(=O)c1cc(C#N)c2ccccc2c1OC (stereo unspecified) [Nafadotride]
6.79 min	CNC(Cc1ccc(O)cc1)C(=O)O (stereo unspecified) [N-Methyltyrosine]
5.59 min	NC(N)=Nc1nc(CSCCC(N)=NS(N)(=O)=O)cs1 [Famotidine]
1.35 min	COc1cc(C(=O)O)cc(OC)c1O [Syringic acid]
8.02 min	NCCC(=O)O [beta-Alanine]
6.15 min	O=C(O)c1cc(=O)c2ccccc2[nH]1 [Kynurenic acid]
6.71 min	Nc1nc2c(ncn2CCC(CO)CO)c(=O)[nH]1 [Penciclovir]
7.37 min	CS(=O)CCCCC(=NOS(=O)(=O)O)SC1OC(CO)C(O)C(O)C1O (stereo unspecified) [Glucoraphanin]
9.48 min	Nc1ccn(C2OC(COP(=O)(O)O)C(O)C2O)c(=O)n1 (stereo unspecified) [Cytidine-5'-monophosphate]
0.98 min	CCC(=O)NS(=O)(=O)c1ccc(-c2c(-c3ccccc3)noc2C)cc1 [Parecoxib]
1.11 min	O=C(NCCO[N+](=O)[O-])c1cccnc1 [Nicorandil]
8.15 min	O=C1OC(CO)C(O)C(O)C1O (stereo unspecified) [Gluconolactone]
7.67 min	CC(=O)NC(CCC(=O)O)C(=O)O (stereo unspecified) [N-Acetylglutamic acid]
4.46 min	O=C(O)CCC(=O)O [Succinic acid]
3.17 min	CC(C(O)c1ccc(O)cc1)N1CCC(Cc2ccccc2)CC1 (stereo unspecified) [Ifenprodil]
1.3 min	O=C1CC(c2ccc(O)cc2)Oc2cc(O)ccc21 (stereo unspecified) [Liquiritigenin]
1.32 min	COc1cc2c(=O)c(-c3ccc(O)cc3)coc2cc1O [Glycitein]
2.18 min	CN1CCN(C2=Nc3ccccc3Oc3ccc(Cl)cc32)CC1 [Loxapine]
